Measurements published in US20060160095A1, “Survivin” (EiRx Therapeutics Limited, priority 2002, published 2006).

What was measured:
Neutrophils = assay: Neutrophil apoptosis by oligonucleosomal DNA fragments after 2-MOE oligonucleotides; type: cell-based, human; details: cytokine alone
Experimental: Neutrophil apoptosis is assessed by oligonucleosomal DNA fragmentation (Dibbert et al.(1999) Proc. Natl. Acad. Sci. USA 96, 13330-13335; Hebestreit et al. (1998), J. Exp. Med. 187, 415-425) according to Nicoletti et al. ((1991) J. Immunol. Meth. 139, 271-279). Briefly, cells are resuspended in hypotonic fluorochrome solution containing 50 μg/ml propidium iodide (Sigma Buchs, Switzerland), 0.1% sodium citrate (Sigma) and 0.1% (vol/vol) Triton-X 100 (Sigma), incubated at 4° C. for 10 h, and analyzed by flow cytometry (FACScan, Becton Dickinson, Heidelberg, Germany).
The 20-mer first generation antisense oligonucleotide 4003 targeting the survivin mRNA has been described above. The second generation 2′-O-methoxy-ethoxy (2′-MOE) gapmer version of 4003 (as) and its 3-base mismatch sequence control (ms) are synthesized using an Applied Biosystems 394B automated DNA synthesizer as described (De Mesaeker et al. (1995) Acc. Chem. Res. 28, 366-374). Sequences are as follows: antisense survivin, cscscsasgsCsCsTsTsCsCsAsGsCsTscscststsg; mismatch survivin, cscstsasgsCsCsTsTsCsCsAsGsGsTscscstsasg. Small letters refer to 2′-O-(2-methoxy)-ethyl-modified nucleotides, capital letters to DNA, and “s” refers to phosphorothioate linkages. Cells isolated and cultured as described above are treated with survivin antisense oligonucleotides (as) or survivin mismatch control oligonucleotides (ms) at the indicated concentrations. In the experiments in which GM-CSF (50 ng/ml; kind gift of T. Hartung, University of Konstanz, Konstanz, Germany) or G-CSF (25 ng/ml; PeproTech, BioConcept, Allschwil, Switzerland) are added, the oligonucleotides are given 2 h before addition of cytokines.
Values are means ±S.E.M. of four independent experiments. *, p<0.05; **, p<0.01; ***, p<0.001.

Survivin mRNA = assay: LifeGrid microarray of Survivin transcripts in neutrophils; type: cell-based, human; details: between 2 and 6 h following addition of GM-CSF
Experimental: Primary human neutrophils are isolated and purified from peripheral blood of normal healthy individuals using standard techniques. Neutrophils are resuspended in serum containing culture medium together with GM-CSF (50 U) at a concentration of 2×10^6/ml, and cultured for 0 h (control), 2 h, 4 h and 6 h at 37° C. Total RNA is then prepared from both groups using acid phenol/guanidine isothiocyanate extraction (RNAzol B; Biogenesis), or RNeasy RNA preparation kits (Qiagen). Any contaminating genomic DNA is removed by DNase treatment (DNase I, Gibco-BRL). […]
This example describes the use of a STORM Phosphoimager to quantitatively image positive signals across the filter arrays. […]
The captured image file is then analysed using software such as Array Vision (Imaging Research Inc.; See FIG. 5). […] This program contains facilities for spot detection and quantification, and background detection and quantification. […] As the data is imported to the database, a Normalisation factor is calculated and the sDENs values modified accordingly. […] A normalization factor may be derived from Linear Regression calculated by reference to housekeeping genes. Alternatively, the Global Mean is calculated as the average of the sDens values across all of the arrays to be compared and a normalisation factor is then derived by division of the overall spot density with the Global Mean value. […]

Granulocyte macrophage colony-stimulating factor [GM-CSF]
DNA-fragmentation of neutrophils with cytokine (Neutrophils): prevent DNA-fragmentation | Expression of Survivin (microarray fold change) (Survivin mRNA): up-regulated
